Data taken from PubChem BioAssay (NCI).
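Cultured in 96-well plates, cells were exposed to test compound for 48 hours across five concentrations. GI50 = concentration required for 50% inhibition of growth. The concentration for full growth arrest is given as TGI.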

Legend:
Experiment in all cases: growth of human tumour cells (NCI), 48 h
MDA-MB-435 = test system: MDA-MB-435
IGROV1 ovarian = test system: IGROV1 ovarian
A549 NSCLC = test system: A549 NSCLC
SK-OV-3 ovarian = test system: SK-OV-3 ovarian
CAKI-1 renal = test system: CAKI-1 renal
NCI-H23 lung = test system: NCI-H23 lung
LOX IMVI melanoma = test system: LOX IMVI melanoma
HOP-62 NSCLC = test system: HOP-62 NSCLC
U251 CNS = test system: U251 CNS
HT29 colon = test system: HT29 colon

Row | SMILES | TGI (MDA-MB-435) | TGI (IGROV1 ovarian) | TGI (A549 NSCLC) | TGI (SK-OV-3 ovarian) | GI50 (CAKI-1 renal) | TGI (NCI-H23 lung) | TGI (LOX IMVI melanoma) | TGI (HOP-62 NSCLC) | TGI (U251 CNS) | TGI (HT29 colon) | GI50 (MDA-MB-435) | GI50 (IGROV1 ovarian) | GI50 (A549 NSCLC) | GI50 (SK-OV-3 ovarian) | GI50 (NCI-H23 lung) | GI50 (LOX IMVI melanoma) | GI50 (HOP-62 NSCLC) | GI50 (U251 CNS) | GI50 (HT29 colon) | TGI (CAKI-1 renal)
1 | CN(C)C[C@H]1CC[C@@H](CN(C)C)C1=O | 19.6 µM | 31.6 µM | > 50 µM | > 50 µM | 0.297 µM | 18.4 µM | 14.2 µM | > 50 µM | > 40.4 µM | 21.1 µM | – | – | – | – | – | – | – | – | – | –
2 | C=C(C=O)C1CC(=O)C(C(=O)OC)[C@@H]2O[C@@](C)(CC2=O)C[C@@H]2OC(=O)[C@]3(O[C@@H]23)[C@@H](C(=O)OC)C1 (some centres undefined) | 33 µM | 48.3 µM | 67.1 µM | > 100 µM | – | 42.8 µM | 21.3 µM | 58.8 µM | 39.8 µM | > 100 µM | 14.3 µM | 4.56 µM | 29 µM | 60.6 µM | 18.3 µM | 7.94 µM | 25.6 µM | 14.6 µM | 29 µM | –
3 | CCOC(=O)c1sc(-c2ccc(OS(=O)(=O)c3cccs3)c(C=O)c2)nc1C | 3.05 µM | 3.41 µM | 6.72 µM | 7.79 µM | 1.31 µM | 4.54 µM | 3.33 µM | – | 2.83 µM | – | 1.59 µM | 1.29 µM | 2.3 µM | 3.25 µM | 1.76 µM | 1.77 µM | – | 1.19 µM | – | 3.94 µM
4 | Cc1ccc2c(c1)C(=O)c1c-2n(CCCN)c(=O)c2cc([N+](=O)[O-])ccc12 | 1.09 µM | 0.985 µM | 0.887 µM | 0.502 µM | 0.0716 µM | 1.16 µM | 0.829 µM | 0.428 µM | 0.832 µM | – | 0.413 µM | 0.176 µM | 0.2 µM | 0.147 µM | 0.356 µM | 0.177 µM | 0.0389 µM | 0.124 µM | – | 0.419 µM
5 | Cn1c2ccccc2c(=Nc2ccccc2)c2c3ccccc3[nH]c21 | 3.32 µM | > 100 µM | – | 5.08 µM | 0.78 µM | 20.4 µM | – | 2.42 µM | 2.45 µM | > 100 µM | 1.84 µM | 1.64 µM | – | 2.16 µM | 2.73 µM | – | 1.14 µM | 1.15 µM | 2.36 µM | 2.05 µM
6 | Oc1ccc2oc3ncc(Cl)c(-c4ccccc4)c3c2c1 | > 100 µM | > 100 µM | > 100 µM | > 100 µM | > 100 µM | > 100 µM | > 100 µM | – | > 100 µM | > 100 µM | > 100 µM | > 100 µM | > 100 µM | > 100 µM | > 100 µM | > 100 µM | – | > 100 µM | > 100 µM | > 100 µM
7 | Nc1ncnc2c1c(C(F)(F)F)cn2[C@@H]1O[C@H](CO)[C@@H](O)[C@H]1O | 2.08 µM | > 100 µM | > 56.1 µM | > 100 µM | 0.49 µM | 5.29 µM | > 100 µM | > 100 µM | > 89.6 µM | – | 0.066 µM | 0.619 µM | 0.324 µM | 2.49 µM | 0.153 µM | 0.051 µM | 0.278 µM | 1.33 µM | – | > 100 µM
